The compounds below were run against bovine cardiac myosin (Bos taurus, UniProt Q9BE39) (assay: Myosin activation assay (PK/LDH-coupled ATPase, bovine cardiac myofibrils)). Details: AC20 = concentration at which total response is increased by twenty percent.
Assay type: biochemical
Outline: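 Values are the concentrations raising the ATPase rate by 20% or 50% over DMSO, from 10-point dose responses fitted with four parameters. Rate is NADH loss at 340 nm via PK/LDH coupling, read 15 min at room temperature, in pH 6.8 PIPES with 50 μM ATP. Bovine cardiac myofibrils were held at pCa ~6 or pCa 10.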

Chain of bovine cardiac myosin (Q9BE39 whole entry): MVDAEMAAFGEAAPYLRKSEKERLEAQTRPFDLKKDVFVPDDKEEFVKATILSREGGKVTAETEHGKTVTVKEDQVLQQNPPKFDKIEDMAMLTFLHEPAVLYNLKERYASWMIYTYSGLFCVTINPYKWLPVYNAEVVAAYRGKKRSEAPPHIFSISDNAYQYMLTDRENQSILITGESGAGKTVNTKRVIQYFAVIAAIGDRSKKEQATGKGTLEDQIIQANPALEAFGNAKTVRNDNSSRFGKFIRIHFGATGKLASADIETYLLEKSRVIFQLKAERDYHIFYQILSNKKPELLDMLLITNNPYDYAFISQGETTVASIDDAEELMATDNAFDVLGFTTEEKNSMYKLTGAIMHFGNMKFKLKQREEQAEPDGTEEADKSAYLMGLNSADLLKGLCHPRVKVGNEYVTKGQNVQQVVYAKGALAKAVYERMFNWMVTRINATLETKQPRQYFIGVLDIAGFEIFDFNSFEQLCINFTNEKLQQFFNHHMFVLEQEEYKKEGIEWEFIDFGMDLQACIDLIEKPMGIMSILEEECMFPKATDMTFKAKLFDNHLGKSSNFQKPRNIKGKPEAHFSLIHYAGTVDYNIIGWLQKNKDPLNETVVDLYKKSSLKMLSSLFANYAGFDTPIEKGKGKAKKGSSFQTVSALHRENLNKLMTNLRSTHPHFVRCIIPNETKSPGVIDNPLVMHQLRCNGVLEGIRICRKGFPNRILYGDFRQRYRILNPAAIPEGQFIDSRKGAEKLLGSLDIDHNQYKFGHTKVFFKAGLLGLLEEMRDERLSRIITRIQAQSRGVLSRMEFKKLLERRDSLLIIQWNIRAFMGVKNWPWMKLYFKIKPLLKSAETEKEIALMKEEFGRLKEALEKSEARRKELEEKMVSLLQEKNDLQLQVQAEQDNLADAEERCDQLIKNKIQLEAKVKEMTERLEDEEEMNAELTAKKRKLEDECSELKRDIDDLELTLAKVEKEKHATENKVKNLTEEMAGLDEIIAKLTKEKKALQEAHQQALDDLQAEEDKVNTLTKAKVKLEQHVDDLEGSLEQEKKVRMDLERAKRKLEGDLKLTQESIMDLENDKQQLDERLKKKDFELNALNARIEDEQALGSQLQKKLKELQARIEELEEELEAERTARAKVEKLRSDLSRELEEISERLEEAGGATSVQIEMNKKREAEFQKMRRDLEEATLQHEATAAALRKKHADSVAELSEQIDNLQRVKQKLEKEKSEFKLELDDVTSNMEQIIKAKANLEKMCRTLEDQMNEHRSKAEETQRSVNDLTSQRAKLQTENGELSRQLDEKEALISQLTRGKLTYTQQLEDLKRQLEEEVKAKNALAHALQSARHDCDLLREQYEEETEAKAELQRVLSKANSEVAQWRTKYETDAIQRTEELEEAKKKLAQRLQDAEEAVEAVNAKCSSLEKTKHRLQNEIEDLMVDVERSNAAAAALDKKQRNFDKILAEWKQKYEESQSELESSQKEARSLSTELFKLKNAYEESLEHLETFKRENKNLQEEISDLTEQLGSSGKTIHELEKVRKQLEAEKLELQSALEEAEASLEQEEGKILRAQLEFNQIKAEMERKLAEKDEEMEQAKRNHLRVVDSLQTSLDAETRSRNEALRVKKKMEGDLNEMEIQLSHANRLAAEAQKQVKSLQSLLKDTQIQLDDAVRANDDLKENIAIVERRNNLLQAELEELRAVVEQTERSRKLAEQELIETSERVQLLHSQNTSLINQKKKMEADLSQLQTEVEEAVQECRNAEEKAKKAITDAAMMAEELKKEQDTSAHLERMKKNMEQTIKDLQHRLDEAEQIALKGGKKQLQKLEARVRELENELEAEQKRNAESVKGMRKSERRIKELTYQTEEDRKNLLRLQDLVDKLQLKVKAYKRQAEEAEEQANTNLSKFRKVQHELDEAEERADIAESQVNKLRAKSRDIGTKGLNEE
Chain of bovine cardiac myosin (P85100 whole entry partner): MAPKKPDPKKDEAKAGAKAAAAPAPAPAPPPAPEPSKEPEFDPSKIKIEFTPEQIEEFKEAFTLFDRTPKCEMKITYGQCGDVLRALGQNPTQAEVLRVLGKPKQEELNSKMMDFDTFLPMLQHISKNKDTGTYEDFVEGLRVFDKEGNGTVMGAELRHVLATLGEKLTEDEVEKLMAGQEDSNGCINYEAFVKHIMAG
Chain of bovine cardiac myosin (Q3SZE5 whole entry partner): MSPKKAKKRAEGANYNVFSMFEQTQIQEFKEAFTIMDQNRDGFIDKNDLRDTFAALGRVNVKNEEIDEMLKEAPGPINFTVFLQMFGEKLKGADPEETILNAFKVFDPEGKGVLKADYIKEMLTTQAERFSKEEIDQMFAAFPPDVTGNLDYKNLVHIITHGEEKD

Row | Structure (SMILES) | Myosin Activation (AC20)
1 | CC(C)(C1CCN(C(=O)Nc2ccncc2Cl)CC1)S(=O)(=O)c1cccc(F)c1 [Compound 176, N-(3-chloropyridin-4-yl)-4-(2-((3-fluorophenyl)sulfonyl)propan-2-yl)piperidine-1-carboxamide] | + (+ represents myosin activation value AC20 > 5 μM)
2 | O=C(Nc1ccnnc1)N1CCC(C(F)(F)S(=O)(=O)c2ccc(-n3cncn3)cc2)CC1 [Compound 64, 4-(((4-(1H-1,2,4-triazol-1-yl)phenyl)sulfonyl)difluoromethyl)-N-(pyridazin-4-yl)piperidine-1-carboxamide] | ++ (++ represents myosin activation value AC20 from 2 μM-5 μM)
3 | Cn1nc(Cl)cc1S(=O)(=O)C(C)(C)C1CCN(C(=O)Nc2ccnc(F)c2)CC1 [Compound 115, 4-(2-((3-chloro-1-methyl-1H-pyrazol-5-yl)sulfonyl)propan-2-yl)-N-(2-fluoropyridin-4-yl)piperidine-1-carboxamide] | ++ (++ represents myosin activation value AC20 from 2 μM-5 μM)
4 | Cc1ccc(NC(=O)N2CCC(C(C)(F)S(=O)(=O)c3cccc(F)c3)CC2)cn1 (stereo not drawn) [Compound 295, 4-(1-fluoro-1-((3-fluorophenyl)sulfonyl)ethyl)-N-(6-methylpyridin-3-yl)piperidine-1-carboxamide] | + (+ represents myosin activation value AC20 > 5 μM)
5 | Cn1cc(S(=O)(=O)C(F)(F)C2CCN(C(=O)Nc3ccc(F)nc3)CC2)c(C(F)F)n1 [Compound 81, 4-(((3-(difluoromethyl)-1-methyl-1H-pyrazol-4-yl)sulfonyl)difluoromethyl)-N-(6-fluoropyridin-3-yl)piperidine-1-carboxamide] | + (+ represents myosin activation value AC20 > 5 μM)
6 | Cn1nc(C(F)(F)F)cc1S(=O)(=O)C(C)(F)C1CCN(C(=O)Nc2ccc(F)nc2)CC1 (stereo not drawn) [Compound 252, 4-(1-fluoro-1-((1-methyl-3-(trifluoromethyl)-1H-pyrazol-5-yl)sulfonyl)ethyl)-N-(6-fluoropyridin-3-yl)piperidine-1-carboxamide] | ++ (++ represents myosin activation value AC20 from 2 μM-5 μM)
7 | C[C@H](O)c1cc(NC(=O)N2CCC([C@](C)(F)S(=O)(=O)c3cccc(F)c3)CC2)ccn1 [Compound 302, 4-((R)-1-fluoro-1-((3-fluorophenyl)sulfonyl)ethyl)-N-(2-((S)-1-hydroxyethyl)pyridin-4-yl)piperidine-1-carboxamide] | + (+ represents myosin activation value AC20 > 5 μM)
8 | CC(C)(C1CCN(C(=O)Nc2cncnc2)CC1)S(=O)(=O)c1cccc(F)c1 [Compound 132, 4-(2-((3-fluorophenyl)sulfonyl)propan-2-yl)-N-(pyrimidin-5-yl)piperidine-1-carboxamide] | + (+ represents myosin activation value AC20 > 5 μM)
9 | Cn1nccc1S(=O)(=O)C(C)(F)C1CCN(C(=O)Nc2ccon2)CC1 (stereo not drawn) [Compound 280, 4-(1-fluoro-1-((1-methyl-1H-pyrazol-5-yl)sulfonyl)ethyl)-N-(isoxazol-3-yl)piperidine-1-carboxamide] | + (+ represents myosin activation value AC20 > 5 μM)
10 | CC(C)(C1CCN(C(=O)Nc2ccnnc2)CC1)S(=O)(=O)c1ccccc1C(F)(F)F [Compound 195, N-(pyridazin-4-yl)-4-(2-((2-(trifluoromethyl)phenyl)sulfonyl)propan-2-yl)piperidine-1-carboxamide] | ++ (++ represents myosin activation value AC20 from 2 μM-5 μM)
11 | Cn1cc(S(=O)(=O)C(C)(C)C2CCN(C(=O)Nc3ccncc3)CC2)cn1 [Compound 198, 4-(2-((1-methyl-1H-pyrazol-4-yl)sulfonyl)propan-2-yl)-N-(pyridin-4-yl)piperidine-1-carboxamide] | + (+ represents myosin activation value AC20 > 5 μM)
12 | Cc1ccc(NC(=O)N2CCC(C(C)(C)S(=O)(=O)c3cc(C(F)(F)F)nn3C)CC2)cn1 [Compound 130, 4-(2-((1-methyl-3-(trifluoromethyl)-1H-pyrazol-5-yl)sulfonyl)propan-2-yl)-N-(6-methylpyridin-3-yl)piperidine-1-carboxamide] | ++ (++ represents myosin activation value AC20 from 2 μM-5 μM)
13 | O=C(Nc1ccns1)N1CCC(C2(S(=O)(=O)c3ccc(OC(F)(F)F)cc3)CC2)CC1 [Compound 207, N-(isothiazol-5-yl)-4-(1-((4-(trifluoromethoxy)phenyl)sulfonyl)cyclopropyl)piperidine-1-carboxamide] | +++ (+++ represents myosin activation value AC20 < 2 μM)
14 | O=C(Nc1ccnnc1)N1CCC(C(F)(F)S(=O)(=O)c2ccc(O)cc2Cl)CC1 [Compound 92, 4-(((2-chloro-4-hydroxyphenyl)sulfonyl)difluoromethyl)-N-(pyridazin-4-yl)piperidine-1-carboxamide] | ++ (++ represents myosin activation value AC20 from 2 μM-5 μM)
15 | Cn1nccc1S(=O)(=O)C(C)(F)C1CCN(C(=O)Nc2ccnnc2)CC1 (stereo not drawn) [Compound 271, 4-(1-fluoro-1-((1-methyl-1H-pyrazol-5-yl)sulfonyl)ethyl)-N-(pyridazin-4-yl)piperidine-1-carboxamide] | ++ (++ represents myosin activation value AC20 from 2 μM-5 μM)
16 | Cn1cc(S(=O)(=O)C(C)(C)C2CCN(C(=O)Nc3ccnnc3)CC2)c(C(F)F)n1 [Compound 168, 4-(2-((3-(difluoromethyl)-1-methyl-1H-pyrazol-4-yl)sulfonyl)propan-2-yl)-N-(pyridazin-4-yl)piperidine-1-carboxamide] | +++ (+++ represents myosin activation value AC20 < 2 μM)
17 | CC(C)(C1CCN(C(=O)Nc2ccc(Cl)nc2)CC1)S(=O)(=O)c1cccc(F)c1 [Compound 159, N-(6-chloropyridin-3-yl)-4-(2-((3-fluorophenyl)sulfonyl)propan-2-yl)piperidine-1-carboxamide] | ++ (++ represents myosin activation value AC20 from 2 μM-5 μM)
18 | C[C@@](F)(C1CCN(C(=O)Nc2ccon2)CC1)S(=O)(=O)c1ccc(OC(F)F)nc1 [Compound 311, (S)-4-(1-((6-(difluoromethoxy)pyridin-3-yl)sulfonyl)-1-fluoroethyl)-N-(isoxazol-3-yl)piperidine-1-carboxamide] | + (+ represents myosin activation value AC20 > 5 μM)
19 | Cc1cc(S(=O)(=O)C(C)(C)C2CCN(C(=O)Nc3cnns3)CC2)n(C)n1 [Compound 188, 4-(2-((1,3-dimethyl-1H-pyrazol-5-yl)sulfonyl)propan-2-yl)-N-(1,2,3-thiadiazol-5-yl)piperidine-1-carboxamide] | +++ (+++ represents myosin activation value AC20 < 2 μM)
20 | Cn1cc(S(=O)(=O)[C@@](C)(F)C2CCN(C(=O)Nc3ccc(F)nc3)CC2)c(C(F)F)n1 [Compound 259, (R)-4-(1-((3-(difluoromethyl)-1-methyl-1H-pyrazol-4-yl)sulfonyl)-1-fluoroethyl)-N-(6-fluoropyridin-3-yl)piperidine-1-carboxamide] | +++ (+++ represents myosin activation value AC20 < 2 μM)
21 | Cc1ncc(NC(=O)N2CCC(C(C)(C)S(=O)(=O)c3cn(C)nc3C(F)F)CC2)cn1 [Compound 143, 4-(2-((3-(difluoromethyl)-1-methyl-1H-pyrazol-4-yl)sulfonyl)propan-2-yl)-N-(2-methylpyrimidin-5-yl)piperidine-1-carboxamide] | + (+ represents myosin activation value AC20 > 5 μM)

Reference: patent US11123337B2, “4-methylsulfonyl-substituted piperidine urea compounds” (MYOKARDIA, INC., priority 2015, dated 2021)
